Reference: PubChem BioAssay AID2060484 (Molecular Pharmacology Branch, DTP, NCI, 2025)

Test system: SUM149PT spheroids with HUVEC/MSC, viability
Assay: Anticancer human tumor SUM149PT cell line growth inhibition [GQUAD];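 also: spheroids exposed to drugs for seven days before readout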;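 as to viability, T/C: percent viability relative to DMSO vehicle control taken as 100%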
Settings: for IC50: curve of first compound; for viability, T/C: stronger effect = lower value; active = viability on the fitted dose curve at most 10% of control; inactive = the rest
Procedure, shortened: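 Tumor cells were grown as complex spheroids with HUVEC endothelial cells and mesenchymal stem cells as stroma. G-quadruplex stabilizers were combined with targeted agents over half-log dilutions from near the clinical Cmax, or from 10 microM.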

[1] = second compound 0.0316 µM, first compound 0.0316 µM
[2] = second compound 0.0316 µM, first compound 0.316 µM
[3] = second compound 0.1 µM, first compound 0.0316 µM
[4] = second compound 0.1 µM, first compound 0.316 µM
[5] = second compound 0.316 µM, first compound 0.0316 µM
[6] = second compound 0.316 µM, first compound 0.316 µM
[7] = second compound 1 µM, first compound 0.0316 µM
[8] = second compound 1 µM, first compound 0.316 µM
[9] = second compound 3.16 µM, first compound 0.0316 µM
[10] = second compound 3.16 µM, first compound 0.316 µM
[11] = second compound 10 µM, first compound 0.0316 µM
[12] = second compound 10 µM, first compound 0.316 µM

CCc1c2c(nc3ccc(O)cc13)-c1cc3c(c(=O)n1C2)COC(=O)[C@]3(O)CC + Cc1[nH]c2ccc(F)cc2c1-c1nc2c3cccnc3c3ncccc3c2[nH]1
1.88 nM: IC50 (second compound 0.316 µM)
1.54 nM: IC50 (second compound 3.16 µM)
inactive: viability, T/C (second compound 0.0316 µM, first compound 0.000999 µM) 67.2% | viability, T/C (second compound 0.0316 µM, first compound 0.00316 µM) 34.9% | viability, T/C (second compound 0.0316 µM, first compound 0.00999 µM) 43.4% | viability, T/C [1] 34.7% | viability, T/C (second compound 0.0316 µM, first compound 0.0999 µM) 32.4% | viability, T/C [2] 18.2% | viability, T/C (second compound 0.1 µM, first compound 0.000999 µM) 69.1% | viability, T/C (second compound 0.1 µM, first compound 0.00316 µM) 32.6% | viability, T/C (second compound 0.1 µM, first compound 0.00999 µM) 45.4% | viability, T/C [3] 34.2% | viability, T/C (second compound 0.1 µM, first compound 0.0999 µM) 27.8% | viability, T/C [4] 16.8% | viability, T/C (second compound 0.316 µM, first compound 0.000999 µM) 61.4% | viability, T/C (second compound 0.316 µM, first compound 0.00316 µM) 33.3% | viability, T/C (second compound 0.316 µM, first compound 0.00999 µM) 37.8% | viability, T/C [5] 38.2% | viability, T/C (second compound 0.316 µM, first compound 0.0999 µM) 27.2% | viability, T/C [6] 15.7% | viability, T/C (second compound 1 µM, first compound 0.000999 µM) 65.9% | viability, T/C (second compound 1 µM, first compound 0.00316 µM) 35.5% | viability, T/C (second compound 1 µM, first compound 0.00999 µM) 38.1% | viability, T/C [7] 40.8% | viability, T/C (second compound 1 µM, first compound 0.0999 µM) 25.5% | viability, T/C [8] 18.4% | viability, T/C (second compound 3.16 µM, first compound 0.000999 µM) 59.7% | viability, T/C (second compound 3.16 µM, first compound 0.00316 µM) 34.1% | viability, T/C (second compound 3.16 µM, first compound 0.00999 µM) 38.7% | viability, T/C [9] 39.7% | viability, T/C (second compound 3.16 µM, first compound 0.0999 µM) 27.6% | viability, T/C [10] 15.7% | viability, T/C (second compound 10 µM, first compound 0.000999 µM) 56.5% | viability, T/C (second compound 10 µM, first compound 0.00316 µM) 31.1% | viability, T/C (second compound 10 µM, first compound 0.00999 µM) 36.3% | viability, T/C [11] 39% | viability, T/C (second compound 10 µM, first compound 0.0999 µM) 25.3% | viability, T/C [12] 15.8%
2.34 nM: IC50 (second compound 0.0316 µM)
2.3 nM: IC50 (second compound 1 µM)
2.58 nM: IC50 (second compound 0.1 µM)
< 0.999 nM: IC50 (second compound 10 µM)

Cc1cccc(N(C)C(=O)C2C(O)CCN2c2nc(C)cc(C(F)(F)F)c2C#N)c1 (centres undefined) + Cc1[nH]c2ccc(F)cc2c1-c1nc2c3cccnc3c3ncccc3c2[nH]1
> 10000 nM: IC50 (second compound 0.0316 µM) | IC50 (second compound 0.1 µM) | IC50 (second compound 0.316 µM) | IC50 (second compound 1 µM) | IC50 (second compound 3.16 µM) | IC50 (second compound 10 µM)
inactive: viability, T/C [1] 98.2% | viability, T/C (second compound 0.0316 µM, first compound 0.1 µM) 92.6% | viability, T/C [2] 105% | viability, T/C (second compound 0.0316 µM, first compound 1 µM) 95.4% | viability, T/C (second compound 0.0316 µM, first compound 3.16 µM) 96.5% | viability, T/C (second compound 0.0316 µM, first compound 10 µM) 92.6% | viability, T/C [3] 102% | viability, T/C (second compound 0.1 µM, first compound 0.1 µM) 101% | viability, T/C [4] 104% | viability, T/C (second compound 0.1 µM, first compound 1 µM) 96.7% | viability, T/C (second compound 0.1 µM, first compound 3.16 µM) 98% | viability, T/C (second compound 0.1 µM, first compound 10 µM) 99% | viability, T/C [5] 97.8% | viability, T/C (second compound 0.316 µM, first compound 0.1 µM) 94.7% | viability, T/C [6] 96% | viability, T/C (second compound 0.316 µM, first compound 1 µM) 97.3% | viability, T/C (second compound 0.316 µM, first compound 3.16 µM) 96.1% | viability, T/C (second compound 0.316 µM, first compound 10 µM) 95.5% | viability, T/C [7] 97.3% | viability, T/C (second compound 1 µM, first compound 0.1 µM) 102% | viability, T/C [8] 91.1% | viability, T/C (second compound 1 µM, first compound 1 µM) 98% | viability, T/C (second compound 1 µM, first compound 3.16 µM) 91.2% | viability, T/C (second compound 1 µM, first compound 10 µM) 108% | viability, T/C [9] 96.5% | viability, T/C (second compound 3.16 µM, first compound 0.1 µM) 102% | viability, T/C [10] 105% | viability, T/C (second compound 3.16 µM, first compound 1 µM) 105% | viability, T/C (second compound 3.16 µM, first compound 3.16 µM) 106% | viability, T/C (second compound 3.16 µM, first compound 10 µM) 102% | viability, T/C [11] 92.5% | viability, T/C (second compound 10 µM, first compound 0.1 µM) 93% | viability, T/C [12] 105% | viability, T/C (second compound 10 µM, first compound 1 µM) 84.8% | viability, T/C (second compound 10 µM, first compound 3.16 µM) 103% | viability, T/C (second compound 10 µM, first compound 10 µM) 96.7%
